This is an account of results in patent US5334595A, “Pyrazoloquinolones as anticancer agents” (priority 1992, dated 1994).

Structures are written as SMILES.

Holding throughout (design): species or system mice
The nature of data set [1]: In vivo antitumor assay, Mam16C/ADR. To be noted: mouse, in vivo, drug iv, qd 1,3,5, exp 1120A, footnote 2: 2 lower doses equally active to modestly more active. An excerpt: (§1) Mice: Inbred: C3H/He and NCR-nu; and Hybrids: B6D2F1 (C57BL/6 females×DBA/2 males, CD2F1 (Balb/c females×DBS/2 males) and B6C3fl (C57BL/6×C3H) were bred at Wayne State University from strains obtained from the Frederick Cancer Research Facility, Frederick, Maryland or purchased from commercial suppliers.
(§2) Tumors: Murine Tumor: P388 and an adriamycin-resistant (ADR) subline P388/ADR leukemia and the following transplantable solid tumors of mice were used for in vivo testing: B16 melanoma (B16), pancreatic ductal adenocarcinoma No. 03 (Pane 03), colon adenocarcinoma No. 38 (colo 38), lung carcinoma No. 12 (LC 12), mammary ductal adenocarcinoma No. 16/C (Mam16C) and an adriamycin-resistant subline Mam16C/ADR. Human tumor: A single human tumor, mammary carcinoma MX-1 was used for in vivo testing. All tumors are in the Developmental Therapeutics Program frozen tumor respository, maintained by the Biological Testing Branch, Frederick Maryland. Each has a detailed description, code identification number, and list of references at the National Tumor Repository. […]
(§3) Quantitative end points used to assess antitumor activity included % Increased Life Span (% ILS), Tumor Cell Kill (Log10 kill), and Tumor Growth Inhibition (T/C). […]
(§4) The log10 cell kill was calculated from the following formula: [formula] where T-C is the tumor difference in the median day of death between the treated (T) and the control (C) groups and Td is the tumor doubling time (in days), the latter estimated from the best fit straight line from a log-linear growth plot of the control-group tumors in exponential growth. […]
(§5) Tumors were measured with a caliper once or twice weekly (as needed) until either tumors exceeded 1600 mg or cure was assured. […] When the control group tumors reached approximately 750-1500 mg in size (median of group), the median tumor weight of each group was determined (including zeros). […] The % T/C was calculated from the following formula for solid murine tumor models: [formula] where T and C are median tumor weights of the treatment and control groups, respectively. […]

Data set [2] deals with adriamycin-resistant subline Mam16C/ADR. Kind of data set: In vivo antitumor assay, Mam16C/ADR. Conditions: drug iv, qd 1,3,5, exp 1120A.
Source text: as §1, §2, §3, §4, §5

Data set [3] in a line: In vivo antitumor assay, Mam16C(sc). Conditions: mouse, in vivo, drug iv, qd 1-4, exp 1132.
Source text: as §1
(§6) Tumors: Murine Tumor: P388 and an adriamycin-resistant (ADR) subline P388/ADR leukemia and the following transplantable solid tumors of mice were used for in vivo testing: B16 melanoma (B16), pancreatic ductal adenocarcinoma No. 03 (Pane 03), colon adenocarcinoma No. 38 (colo 38), lung carcinoma No. 12 (LC 12), mammary ductal adenocarcinoma No. 16/C (Mam16C) and an adriamycin-resistant subline Mam16C/ADR. Human tumor: A single human tumor, mammary carcinoma MX-1 was used for in vivo testing. All tumors are in the Developmental Therapeutics Program frozen tumor respository, maintained by the Biological Testing Branch, Frederick Maryland. Each has a detailed description, code identification number, and list of references at the National Tumor Repository. Murine tumors were maintained in the mouse strain of origin and were transplanted in the appropriate F1 hydrid (or the strain of origin) for therapy trials. Human mammary carcinoma MX-1 (MX1) was maintained as a subcutaneous implant in either athymic Swiss (Cr: NIH(S)-nu) or athymic random bred (NCR-nu) mice and transplanted in NCR-nu for therapy trials.
(§7) Chemotherapy: For pancreatic ductal adenocarcinoma No. 3, colon adenocarcinoma No. 38 (colo 38), lung carcinoma No. 12 LC 12) and both adriamycin-sensitive (RP) and-resistant (ADR) mammary ductal adenocarcinoma No. 16 (Mam16) tumors, bilateral tumor implants were used to help ensure a more uniform tumor burden per mouse (thus reducing the requirement for greater numbers of mice per group). The animals necessary to begin an experiment were pooled, implanted bilaterally s.c. on day zero with 30-60 mg tumor fragments using a 12-gauge trocar, and again pooled before randomization to the various treatment and control groups. Chemotherapy was started within three days after tumor implantation while the number of cells per mouse was relatively small (1×10^7 -1×10^8 cells).
(§8) Quantitative end points used to assess antitumor activity included % Increased Life Span (% ILS), Tumor Cell Kill (Log10 kill), and Tumor Growth Inhibition (T/C). Long Term Survivors (45 or 60 day) were excluded from calculations of %ILS and Tumor Cell Kill.
(§9) The log10 cell kill was calculated from the following formula: [formula] where T-C is the tumor difference in the median day of death between the treated (T) and the control (C) groups and Td is the tumor doubling time (in days), the latter estimated from the best fit straight line from a log-linear growth plot of the control-group tumors in exponential growth. The conversion of the T-C values to log10 cell kill is possible because the Td for tumors regrowing post-treatment approximated the Td values of the tumors in untreated control mice.
as §5

Data set [4] deals with mammary ductal adenocarcinoma No. 16/C (Mam16C). Briefly: In vivo antitumor assay, Mam16C(sc). To be noted: drug iv.
Source text: as §1, §6, §7, §8, §9, §5

Data set [5] in a line: In vivo antitumor assay, P388/ADR(iv). To be noted: mouse, in vivo, iv, drug iv.
Source text: as §1, §6
(§10) For P388 and P388/ADR leukemia studies the tumor cells were implanted either interperitoneally (IP) or intravenously (IV) on day zero and treatment was started on day one. For B16 melanoma (B16) studies, the tumor cells were implanted IP on day zero and treatment was started on day one. Titered controls were also included to facilitate the calculation of tumor cell kill. For mammary carcinoma MX-1 studies, tumors were implanted with 1) subcutaneously (sc) (14-mg fragment of sc donor tumor) in the axillary region or 2) under the subrenal capsule (SRC) (10×10×10 ocular micrometer unit fragment of sc donor tumor). Treatment started on the day after subrenal capsule tumor implant or when the subcutaneous tumor implant had reached 100-700 mg.
as §8
(§11) Endpoints were calculated as follows: [formula] where Dt is the median day of death for treated and Dc is the median day of death for control groups. A % ILS ≥20 or ≥25 for P388 and B16 intraperitoneal models, respectively, is indicative of a significant degree of antitumor activity. A % ILS ≥75 or ≥50 for P388 and B16 intraperitoneal models, , respectively, is indicative of a high degree of antitumor activity and is the level used by National Cancer Institute to justify further development if other requirements are met (termed DN-2 level activity). Minimum quantitative activity limits for additional P388 models (e.g. P388/ADR and P388, IV) have not been defined. However, the activity limits specified for the intraperitoneal models may be applied as in the majority of instances the intraperitoneal models are found to be signficantly less challenging.
as §9

Data set [6] concerns adriamycin-resistant (ADR) subline P388/ADR leukemia. Briefly: In vivo antitumor assay, P388/ADR(iv). To be noted: drug iv.
Source text: as §1, §6, §10, §8, §11, §9

Data set [7] deals with pancreatic ductal adenocarcinoma No. 03. Kind of data set: In vivo antitumor assay, Panc03(sc). Conditions: for Log Kill: Panc03(sc), drug iv.

On to `Cc1cc(-c2c(F)cc3c4nn(CCN(C)C)c(=O)c-4cn(C4CC4)c3c2F)cc(C)n1.O=C(O)/C=C/C(=O)O` [Example 1, 5-Cyclopropyl-6,8-difluoro-2,5-dihydro-2-[2-(dimethylamino)-ethyl]-7-(2,6-dimethyl-4-pyridinyl)-3H-pyrazolo[4,3-c]quinolin-3-one (E)-2-butendioate (1:1)], for which the MTD in data set [1] is 58 mg/kg; in data set [3], 43 mg/kg; in data set [5] (qd 1-3, exp 1149B), 52 mg/kg; in data set [5] (qd 1-5, exp 1073B), 48 mg/kg. The “Log Kill” value in data set [2] is recorded as 0.50; in data set [4] (qd 1,3,5, exp 1142A), 1.9; in data set [4] (qd 1-4, exp 1132), 1.3; in data set [6] (qd 1-3, exp 1149B) it was 1.3; in data set [6] (qd 1-5, exp 1073B), 0.93; in data set [7] (qd 3,6,9, exp 1146) it was 0.66. In data set [7] (qd 3, exp 895A), the “Log Kill” value stood at 0.66. Further, the T/C % turned out to be 26% in data set [2]; 18% in data set [4] (qd 1,3,5, exp 1142A); 7% in data set [4] (qd 1-4, exp 1132). The ILS % was 27% in data set [6] (qd 1-3, exp 1149B) and 14.3% in data set [6] (qd 1-5, exp 1073B).

For `Cc1cc(-c2c(F)cc3c4nn(CCCN(C)C)c(=O)c-4cn(C4CC4)c3c2F)cc(C)n1` [Example 14], the “Log Kill” value in data set [7] (qd 3-5, exp 895A) amounted to 0.60. In addition, the MTD in data set [7] (mouse, in vivo, iv) was 64 Mg/Kg.
